Measurements as given in ChEMBL document CHEMBL1149486, “Carbonic anhydrase inhibitors: Hypoxia-activatable sulfonamides incorporating disulfide bonds that target the tumor-associated isoform IX” (J Med Chem, 2006).

What follows are compounds tested against Carbonic anhydrase 9 (Homo sapiens, UniProt Q16790).

Row | SMILES | Ki [nM]
1 | NS(=O)(=O)c1nnc(NC(=O)CCS)s1 | 3.6
2 | Cn1nc(S(N)(=O)=O)s/c1=N/C(=O)CCSSCCC(=O)/N=c1/sc(S(N)(=O)=O)nn1C | 9.3
3 | NS(=O)(=O)c1ccc(CCNC(=O)CCSSCCC(=O)NCCc2ccc(S(N)(=O)=O)cc2)cc1 | 71
